Source: PMC9202104 (BMC Biology, 2022)

How the values were obtained:
[1] = system: 8 human ZIKV strains (PAN2016, R116265, PAN2015, FLR, R103451, PRVABC59, PLCal_ZV, IbH 30656); assay: microbe, parasite or virus in culture; type: cell-based; details: Zika virus, read-out: Average IC50 (human strains)
Protocol: (§1) After removal of the unbound compounds by centrifugation (after addition of 3% PEG-6000), ZIKV was incubated with Vero E6 cells in 24-well plates at 37°C for 1 h. The cells were then washed with PBS, overlaid with DMEM containing 1% carboxymethyl cellulose and 2% FBS, and cultured at 37°C for 4–5 days, followed by being stained with 0.5% crystal violet. […] Plaques in each well were calculated, and IC50 of compounds for each compound was calculated using the CalcuSyn computer program.

[2] = Cytotoxicity, Cell Counting Kit-8, Vero E6 cells; type: cell-based; details: African green monkey, CC50 Vero E6
Protocol: (§2) Briefly, compounds at 2-fold serial dilutions were added to the respective cells (2.0×10^4/well) pre-seeded in 96-well plates. The cells were cultured at 37°C in the presence of 5% CO2 for 3 days, […] incubated with CCK8 solution, followed by measurement of absorbance at 450 nm (A450 value), using a microplate reader (Infinite F200PRO, Tecan, Morrisville, NC, USA). CC50 of compounds was calculated using the CalcuSyn program.

[3] = system: Vero E6 cells; assay: Cytotoxicity, Cell Counting Kit-8, Vero E6 cells; type: cell-based; details: African green monkey, 3 days
Protocol: as §2

[4] = system: DENV-4-PR-06-65-740; assay: Plaque assay, inhibition of DENV-4 infection in LLC-MK2 cells; type: cell-based; details: Dengue virus, DENV4
[5] = system: ZIKV human strain R116265; assay: ZIKV vertical transmission in pregnant Ifnar1−/− mice; type: in vivo; details: 5 dpi
Protocol: Briefly, groups of 5 pregnant mice (10–12-week-old, E12-14) were i.p. injected with ST087010 (20 mg/kg of body weight, 200 μl/mouse), or DMSO (negative control), 12 h before and 6, 24, and 48 h after i.p. infection with ZIKV (human strain R116265, 10^3 PFU). Five days post-infection, mice were sacrificed; viral titers were assessed using plaque assay in the sera, placenta, fetal brain, and amniotic fluid, and uteri and fetuses were assessed for morphological and size changes. The placenta was also assessed for apoptosis and viral replication by immunofluorescence staining, as described below.
Immunofluorescence staining was carried out to detect ZIKV and caspase-3 signals in ZIKV-infected mouse tissues. Briefly, tissues were fixed in 4% formaldehyde, embedded in paraffin, and sectioned. The tissue sections were deparaffinized, fixed, and permed using the FIX and PERM Cell Permeabilization Kit (Thermo Fisher Scientific, Waltham, MA, USA). After blocking with 5% BSA, the tissue slides were incubated at 37°C 2 h with ZIKV EDIII-specific human mAb (ZV-67, 1:100, Absolute Antibody, Boston, MA, USA), or rabbit anti-active caspase-3 antibody (1:100, Abcam). The slides were washed with PBS and incubated for 30 min with anti-human FITC antibody (1:100, for ZIKV), or anti-rabbit Alexa Fluor 647 antibody (1:100, for caspase-3). The slides were then counterstained for nuclei, using DAPI (300 nM, Thermo Fisher Scientific, Waltham, MA, USA) for 5 min, and mounted in VectaMount Permanent Mounting Medium (Vector Laboratories, CA, USA). The slides were analyzed using a confocal microscope (Zeiss LSM 880) and ZEN software, and fluorescent signals were quantified by ImageJ software.

[6] = system: DENV-3-V1043; assay: Plaque assay, inhibition of DENV-3 infection in LLC-MK2 cells; type: cell-based; details: Dengue virus, DENV3
[7] = molecular target: T1, ZIKV full-length envelope (E) protein (Zika virus, UniProt Q32ZE1); assay: ELISA binding to ZIKV full-length E protein
T1 construct: ZIKV full-length E (Aviva Systems Biology, San Diego, CA, USA); purchased Aviva Systems Biology
T1 sequence (Q32ZE1 291-790): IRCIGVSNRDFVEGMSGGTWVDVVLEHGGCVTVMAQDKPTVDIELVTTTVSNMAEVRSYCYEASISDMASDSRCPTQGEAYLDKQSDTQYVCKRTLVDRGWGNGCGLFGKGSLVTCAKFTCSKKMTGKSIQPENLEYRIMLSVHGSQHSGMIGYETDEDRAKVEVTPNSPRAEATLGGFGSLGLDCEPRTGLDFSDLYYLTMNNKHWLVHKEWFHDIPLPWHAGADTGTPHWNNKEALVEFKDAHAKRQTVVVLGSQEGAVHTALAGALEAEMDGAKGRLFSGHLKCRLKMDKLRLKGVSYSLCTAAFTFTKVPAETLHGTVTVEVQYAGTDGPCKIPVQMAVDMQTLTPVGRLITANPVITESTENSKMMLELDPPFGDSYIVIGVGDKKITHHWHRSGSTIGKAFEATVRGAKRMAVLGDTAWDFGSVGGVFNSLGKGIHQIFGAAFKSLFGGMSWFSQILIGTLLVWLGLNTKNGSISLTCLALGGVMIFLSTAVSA
Protocol: Briefly, ELISA plates were coated with each protein (1 μg/ml) at 4°C overnight and were then incubated with blocking buffer containing 2% fat-free milk in PBST (0.05% Tween-20) at 37°C for 2 h. The above compounds, or DMSO control, at serial dilutions were added to the plates and incubated at 37°C for 2 h. After three washes using PBST, the plates were incubated at 37°C for 2 h with ZIKV EDIII-specific human mAb ZKA64-LALA (0.5 μg/ml) (for binding to ZIKV full-length E or EDIII protein), or ZIKV NS2B-NS3-specific mouse sera (for binding to NS2B-NS3 protein). After further washes, the plates were incubated with horseradish peroxidase (HRP)-conjugated anti-human IgG-Fab (1:3,000, Abcam, Cambridge, MS, USA) or anti-mouse IgG (1:3,000, Sigma) antibody at 37°C for 1 h. The plates were incubated with substrate TMB (3,3′,5,5′-tetramethylbenzidine) for 1 min, and the reaction was stopped by addition of 1 N H2SO4. Absorbance at 450 nm (A450 values) was measured by an ELISA microplate reader. Percent binding (% binding) to the E, EDIII, or NS2B-NS3 protein was calculated in the presence or absence of serially diluted compounds using the formula ((1-(E/EDIII/NS2B-NS3-compound)/(E/EDIII/NS2B-NS3))×100), based on which EC50 was calculated using the CalcuSyn program.

[8] = system: ZIKV human strain IbH 30656; assay: Plaque assay, inhibition of ZIKV infection (strain IbH 30656); type: cell-based; details: Zika virus, Vero C1008; plaque assay, Vero E6 cells, human strain; read-out: IC50 IbH 30656
Protocol: as §1

Question: For Cc1cc2c(C(C)C)c(O)c(O)c(/C=N/n3c(=O)[nH][nH]c3=O)c2c(O)c1-c1c(C)cc2c(C(C)C)c(O)c(O)c(/C=N/n3c(=O)[nH][nH]c3=O)c2c1O [ST087010], which IC50 [1] is on record?
Answer: 2.9 µM

Question: What about the CC50 at 3 days [2] of the same compound?
Answer: 49.6 µM

Question: And the CC50 [3]?
Answer: 49.6 ± 1.83 µM

Question: What about the IC50 [4] of the same compound?
Answer: 2.98 ± 0.18 µM

Question: What about the “Staining of ZIKV+ or caspase-3 signals in placental tissues” value ([5]; immunofluorescence, compared to DMSO) of the same compound?
Answer: undetectable, or diminished

Question: And the “Viral titers in sera, placenta, fetal brain, and amniotic fluid” value ([5]; pregnant mice, 20 mg/kg i.p., ZIKV R116265 10^3 PFU, compared to DMSO)?
Answer: significantly reduced

Question: What about the Condition of fetuses ([5]; pregnant mice, 20 mg/kg i.p., ZIKV R116265) of the same compound?
Answer: all in good condition

Question: What about the IC50 [6] of the same compound?
Answer: 3.33 ± 0.08 µM

Question: And the EC50 [7]?
Answer: 6.47 µM

Question: And the IC50 [8]?
Answer: 2.9 µM
